PMC6967409 (Frontiers in Chemistry, 2020)
Where “and” joins values, the source holds several entries; their conditions need not be identical. Identical values can stand only once. Like-named read-outs stand apart in the source and are kept apart here.

Legend:
[1] = tested on: P. falciparum W2; assay: T0 [3H]-hypoxanthine drug susceptibility assay; type: cell-based; conditions: Plasmodium falciparum; for IC50: W2, read-out: W2 IC50; for IC90: W2, read-out: W2 IC90
[2] = tested on: P. falciparum NF54; set-up: method as in Coertzen et al. (2018); conditions: pLDH, 48 h; ref Coertzen et al. (2018); read-out: Metabolic IC50 NF54; cited from earlier work
[3] = tested on: P. falciparum Dd2; set-up: method as in Coertzen et al. (2018); conditions: pLDH, 48 h; ref Coertzen et al. (2018); read-out: Metabolic IC50 Dd2; cited from earlier work
[4] = tested on: P. falciparum NF54; set-up: method as in Coertzen et al. (2018); conditions: SYBR Green I; ref Coertzen et al. (2018); read-out: Proliferative IC50 NF54; cited from earlier work
[5] = tested on: P. falciparum K1; set-up: method as in Coertzen et al. (2018); conditions: SYBR Green I; ref Coertzen et al. (2018); read-out: Proliferative IC50 K1; cited from earlier work
[6] = tested on: P. falciparum W2; set-up: method as in Coertzen et al. (2018); conditions: SYBR Green I; ref Coertzen et al. (2018); read-out: Proliferative IC50 W2; cited from earlier work
[7] = tested on: P. falciparum NF54 early stage gametocytes (>90% stage I–III); set-up: method as in Coertzen et al. (2018); conditions: read-out: Early Stage (EG, Luc 48 h) IC50; >90% stage I–III gametocytes; ref Coertzen et al. (2018); cited from earlier work
[8] = tested on: Chinese hamster ovarian (CHO) cells; conditions: cited from earlier work
[9] = tested on: P. falciparum NF54; assay: Metabolic (parasite LDH) assay, asexual ring stage parasites, 48 h; type: cell-based; conditions: Plasmodium falciparum, pLDH, CQ-sensitive NF54
Procedure: (§1) P. falciparum parasites (NF54, K1, and W2) were cultured in vitro in human erythrocytes (A^+ or O^+) under 90% N2, 5% CO2, and 5% O2 atmospheric conditions with supplemented RPMI 1640 media (Sigma Aldrich) containing Albumax II, as previously described (Verlinden et al., [2011]). This study was carried out according the guidelines set out by the Faculty of Health Sciences Ethical Committee, Ethical Clearance no. EC-120821/077. The protocol was approved by the Faculty of Health sciences ethical committee at the University of Pretoria. All subjects gave written informed consent in accordance with the Declaration of Helsinki. Parasite proliferation was monitored microscopically using Giemsa stained smears. Synchronized ring stage parasites (>95%) were obtained using a 5% D-sorbitol (Sigma Aldrich) treatment. […] Gametocyte cultures were kept stationary under 90% N2, 5% CO2, and 5% O2 atmospheric conditions at 37°C and treated with 50 mM N-acetyl-glucosamine (NAG) to eliminate residual invasion of asexual parasites.
(§2) Working solutions of the derivatives were prepared from a 10 mM stock solution in 100% DMSO in supplemented RPMI 1640 media containing Albumax II with a final DMSO concentration of <0.1%, previously determined as being non-toxic to intraerythrocytic asexual parasites and gametocytes. Dose responses were assayed using a two-fold serial drug dilution on in vitro >95% ring stage intraerythrocytic P. falciparum parasites at 37°C under 90% N2, 5% CO2, and 5% O2 atmospheric conditions, detecting both parasite lactate dehydrogenase (pLDH) activity as a metabolic marker following a 48 h drug exposure (1.5–2% parasitemia and 2% hematocrit; Makler et al., [1993]) and SYBR Green I fluorescence as proliferative marker following a 96 h drug exposure (1% parasitemia and 1% hematocrit). […] Data analysis was performed using GraphPad Prism 7.

[10] = tested on: P. falciparum Dd2; assay: as above; type: cell-based; conditions: Plasmodium falciparum, pLDH, Dd2 CQ, pyrimethamine resistant
Procedure: as §2

[11] = tested on: P. falciparum K1; assay: Proliferative (SYBR Green I) assay, asexual parasites, 96 h; type: cell-based; conditions: Plasmodium falciparum, ±SEM
Procedure: as §1, §2

[12] = tested on: P. falciparum NF54; assay: as above; type: cell-based; conditions: Plasmodium falciparum, ±SEM
Procedure: as §1, §2

[13] = tested on: P. falciparum W2; assay: as above; type: cell-based; conditions: Plasmodium falciparum, ±SEM
Procedure: as §1, §2

[14] = Cytotoxicity, MTT assay; type: cell-based; conditions: Chinese hamster, CHO cells
Procedure: (§3) Cytotoxicity (EC50) was determined against Chinese hamster ovarian (CHO) using a 3-(4,5-dimethylthiazol-2-yl)-2,5-diphenyltetrazolium bromide (MTT) assay and hepatocellular carcinoma cells (HepG2) using the Cytoselect LDH cytotoxicity assay kit (Cell Biolabs).

[15] = Cytotoxicity, Cytoselect LDH cytotoxicity assay kit; type: cell-based; conditions: human, HepG2 cells
Procedure: as §3

[16] = tested on: P. falciparum NF54 early stage gametocytes (>90% stage I–III); assay: Gametocytocidal luciferase reporter assay, early stage, 48 h; type: cell-based; conditions: Plasmodium falciparum, NF54, 48 h, read-out: Early Stage (EG, Luc 48 h) IC50
Procedure: as §1
(§4) Gametocytocidal activity was determined using the luciferase reporter line (Reader et al., [2015]) to derive dose responses with two-fold serial drug dilutions for 48 h against early stage gametocytes (day 5 post-induction population, >90% stage I–III) and 10-fold serial drug dilutions for 72 h against late stage gametocytes (day 10 post-induction population, >90% late stage IV–V) (2% gametocytemia, 2% hematocrit), at 37°C under 90% N2, 5% CO2, and 5% O2 atmospheric conditions.

[17] = tested on: P. falciparum NF54 late stage gametocytes (>90% stage IV and V); assay: Gametocytocidal luciferase reporter assay, late stage, 72 h; type: cell-based, Plasmodium falciparum; conditions: Plasmodium falciparum, NF54, 72 h, read-out: Late Stage (LG, Luc 72 h) IC50, >90% stage IV and V gametocytes, ±SEM
Procedure: as §1, §4

[18] = tested on: P. berghei ANKA GFP-Luc-SMcon sporozoites; assay: P. berghei-luciferase liver stage bioluminescence assay (causal prophylactic mode) in HepG2-CD81 cells; type: cell-based, Plasmodium berghei; conditions: for Emax: 48 h, read-out: P.berghei-Luciferase Liver Stage Bioluminescence Assay: Maximum measured (%); for inhibition at 10 µM: read-out: P. berghei sporozoites Maximum inhibition %
Procedure: (§5) Briefly, HepG2-CD81 cells were seeded into 1,536 well plates containing 50 nL of test and control compounds diluted into DMSO. […] Next, 2 μL of luciferin reagent (Promega BrightGlo) was added to each well and luciferase activity was detected using a Perkin Elmer Envision plate reader. […] In parallel, plates were processed without sporozoites for HepG2 toxicity measurements.
(§6) In continuation of the transmission blocking theme, it is important to establish activities against liver stage parasites. […] This assay uses ultra-high-throughput screening methods optimized for a 1536-well format and a HepG2 human hepatoma cell line. […] To establish selectivity of the compounds for the parasite in the liver stage of infection, cytotoxicity was determined by measuring bioluminescence from the reaction between free ATP of compound-treated, uninfected hepatocytes and a luciferase reporter system.

[19] = HepG2 cytotoxicity bioluminescence assay (CellTiterGlo, ATP); type: cell-based, human; conditions: human, uninfected HepG2-CD81 cells; for IC50 at 72 h: two biological replicates listed in one cell; for EC50 at 72 h: uninfected HepG2, ATP bioluminescence
Procedure: as §5, §6

[20] = tested on: HepG2 cells; assay: as above; type: cell-based, human; conditions: two biological replicates listed in one cell
Procedure: as §5, §6

[21] = tested on: asexual P. falciparum NF54, Dd2, K1, W2; assay: Asexual P. falciparum, metabolic (pLDH) and proliferative (SYBR Green I) platforms; type: cell-based; conditions: Plasmodium falciparum; read-out: IC50 for drug sensitive NF54 parasites across both assay platforms
Procedure: Data analysis was performed using GraphPad Prism 7.
The in vitro activities of the new derivatives were determined against drug sensitive NF54 and multi-drug resistant Dd2, K1, and W2 intraerythrocytic asexual P. falciparum malaria parasite strains using both a metabolic (parasite LDH) and a proliferative (SYBR Green I fluorescence) assay readout (Table 1).

[22] = tested on: P. falciparum NF54 late stage gametocytes (>90% stage IV and V); set-up: method as in Coertzen et al. (2018); conditions: read-out: Late Stage (LG, Luc 72 h) IC50; >90% stage IV and V gametocytes; ref Coertzen et al. (2018); cited from earlier work
[23] = tested on: P. falciparum ARC08-22 (4G); assay: T0 [3H]-hypoxanthine drug susceptibility assay, artemisinin-resistant clone (C580Y); type: cell-based, Plasmodium falciparum; conditions: preliminary, W2 as comparative sensitive strain
[24] = read-out: Cytotoxicity EC50 CHO, MTT assay, ref Coertzen et al. (2018)
[25] = Plasmodium berghei, two biological replicates listed in one cell
[26] = Plasmodium berghei, two biological replicates listed in one cell, read-out: P.berghei-Luciferase Liver Stage Bioluminescence Assay: IC50
[27] = Plasmodium berghei, HepG2, 48 h, liver stage, HepG2 host cells, luciferase after 48 h, ±SD, read-out: P. berghei sporozoites IC50
[28] = Plasmodium berghei, Conc. 10 μM

SMILES	IC50 [1] [nM]	IC90 [1] [nM]	IC50 [2] [nM]	IC50 [3] [nM]	IC50 [4] [nM]	IC50 [5] [nM]	IC50 [6] [nM]	IC50 [7] [nM]	IC50 [9] [nM]	IC50 [10] [nM]	IC50 [11] [nM]	IC50 [12] [nM]	IC50 [13] [nM]	EC50 [14] [nM]	EC50 [15] [nM]	IC50 [17] [nM]	Emax [18, 25] [%]	IC50 [18, 26] [nM]	IC50 at 72 h [19] [nM]	EC50 at 72 h [19] [nM]	other results
CC1CCC2C(C)C(N3CCN(C(=O)Nc4ccccc4)CC3)OC3OC4(C)CCC1C32OO4 (stereo not drawn) [Phenylurea 10]	0.12 ± 0.03	0.2 ± 0.03	1.3 ± 0.8	7.5 ± 0.4	4.7 ± 1.5	2.9 ± 0.6	1.7 ± 0.5	83 ± 2													EC50 [8, 24]: 2400 ± 1000 nM
C[C@H]1[C@H](N2CCN(C(=O)Nc3ccc(F)cc3)CC2)O[C@@H]2O[C@@]3(C)CC[C@H]4[C@H](C)CC[C@@H]1[C@@]24OO3 [Compound 24]									1.21 ± 0.04	9.2 ± 1.9	0.85 ± 0.1	1.3 ± 0.1	1.16 ± 0.17	204000	340	17 ± 7	99.2	101	6440	5160	IC50 [16]: 36 ± 10.2 nM; IC50 ([18]; Plasmodium berghei, HepG2, 48 h, read-out: P. berghei sporozoites IC50, liver stage, HepG2 host cells, luciferase after 48 h, ±SD): 106 ± 6.36 nM; inhibition at 10 µM ([18]; Plasmodium berghei): 94.8 ± 2.76%; IC50 ([18]; two biological replicates listed in one cell, listed as 24 (WHN-12), read-out: P.berghei-Luciferase Liver Stage Bioluminescence Assay: IC50): 110 nM; HepG2 Cytotoxicity Bioluminescence Assay: Maximum measured (%) ([20]; listed as 24 (WHN-12)): 59.5% and 66.1%; IC50 ([20]; listed as 24 (WHN-12)): 3880 nM; IC50 [21]: 1 to 2 nM
CN(C)c1ccc2nc3ccc(=[N+](C)C)cc-3sc2c1 [MB, methylene blue]			0.3 ± 0.8	12.6 ± 4	5 ± 0.8	6.45 ± 0.3	5.13 ± 0.31	95 ± 11.3													IC50 [22]: 143 ± 16.7 nM; EC50 [8]: 52600 ± 4500 nM
C[C@H]1[C@H](N2CCN(C(=O)Nc3ccc(C(F)(F)F)cc3)CC2)O[C@@H]2O[C@@]3(C)CC[C@H]4[C@H](C)CC[C@@H]1[C@@]24OO3 [Compound 23]									1.83 ± 0.2	12.2 ± 1.9	1.12 ± 0.13	1.55 ± 0.08	1.41 ± 0.09	185000	453	1 ± 0.3	99.5	79.6	6990	5450	IC50 ([16]; >90% stage I–III gametocytes, ±SEM): 20 ± 9.4 nM; IC50 [18, 27]: 82.5 ± 4.17 nM; inhibition at 10 µM [18, 28]: 105 ± 7.42%; IC50 ([18]; two biological replicates listed in one cell, listed as 23 (WHN-11), read-out: P.berghei-Luciferase Liver Stage Bioluminescence Assay: IC50): 85.5 nM; HepG2 Cytotoxicity Bioluminescence Assay: Maximum measured (%) ([20]; listed as 23 (WHN-11)): 50.9% and 55.9%; IC50 ([20]; listed as 23 (WHN-11)): 3910 nM; IC50 [21]: 1 to 2 nM
C[C@H]1[C@H](N2CCN(C(=O)c3ccc(C(F)(F)F)cc3)CC2)O[C@@H]2O[C@@]3(C)CC[C@H]4[C@H](C)CC[C@@H]1[C@@]24OO3 [Compound 27]	0.21 ± 0.04	0.41 ± 0.08							0.49 ± 0.04	13.2 ± 9.3	3.5 ± 2.4	3.4 ± 0.4	3 ± 0.4	150000	136	2.8 ± 1.8	105	129	8910	7020	IC50 [16]: 43.7 ± 5.1 nM; IC50 [18, 27]: 168 ± 55.2 nM; inhibition at 10 µM [18, 28]: 108 ± 4.24%; IC50 ([18]; two biological replicates listed in one cell, listed as 27 (WHN-15), read-out: P.berghei-Luciferase Liver Stage Bioluminescence Assay: IC50): 207 nM; HepG2 Cytotoxicity Bioluminescence Assay: Maximum measured (%) ([20]; listed as 27 (WHN-15)): 78.3% and 80.2%; IC50 ([20]; listed as 27 (WHN-15)): 5120 nM; susceptibility of ARC08-22 (4G) clone (in words) [23]: no indication of reduced susceptibility
CC1CCC2C(C)C(N3CCNCC3)OC3OC4(C)CCC1C32OO4 (stereo not drawn) [DHA-piperazine 9]			3.2 ± 1.4	1.7 ± 0.2	3.1 ± 0.4	1.9 ± 0.5	1.4 ± 0.7	54.9 ± 5.11													IC50 [22]: 25.7 ± 17.5 nM
CC1CCC2C(C)C(Nc3ccc(F)cc3)OC3OC4(C)CCC1C32OO4 (stereo not drawn) [Arylamine 12]	4.76 ± 0.38	8.51 ± 0.34	7.8 ± 1.9	11.1 ± 1	1.3 ± 0.6	0.64 ± 0.1	3 ± 1	38.2 ± 9													IC50 [22]: 16.4 ± 6.38 nM; EC50 [8, 24]: 2900 ± 1400 nM
